Where two headings read alike, the source gives them in different places. Residues, ends and D or L forms follow the SMILES beside them. *: point of attachment. X1 = Cc1nn(CCN(CCN)CCCC(=O)*)c(C)c1CC(=O)O
How the values were obtained:
[1] = Partition coefficient (log Po/w) of radiopeptides; assay type: physicochemical
Excerpt: Table 7 lists each peptide's name, isoelectric point (PI), charge (number of positive residues), calculated mass (in Da), and ion found; as well as the name, calculated mass, and found ion for the corresponding conjugate; and also retention times in HPLC and the partition coefficient (log Po/w). These values allowed the determination of the hydrophilic nature of peptides, where pepH1 and pepH4 were identified as the most hydrophilic peptides.

[2] = Biodistribution of technetium-labelled peptides; assay type: in vivo, CD1 mice
Experimental: To evaluate the capacity to cross the BBB in vivo, the selected peptides, pepH1 and pepH3, were analyzed for biodistribution in CD1 mice. The peptides were labelled with technetium at a final concentration of 8.5×10^−5 M and diluted in PBS. CD1 mice were injected (iv injection, tail vein). The mice were sacrificed by cervical dislocation after 5 and 60 minutes of incubation. The tissues of interest were dissected and washed to remove excess blood, weighed, and measured for radioactivity. Technetium radioactivity of the different peptides was measured for different organs.
Initial results are presented in Table 11, where “% I.A. refers to the “% injected activity”, that is, the amount of radioactivity measured in a given organ compared to the total originally injected.
The biodistribution studies were repeated, using higher doses of each peptide, specifically, a one hundred fold increase, as well as using PepH2 as a negative control, and allowing incubation for 2 minutes and 60 minutes. Tissue biodistribution profile in percentage of injected radiopeptide activity per gram of tissue/organ was measured and results are presented in Table 12.

For `Cc1nn(CCN(CCN)CCCC(=O)N[C@H](C(=O)N[C@@H](CCC(N)=O)C(=O)N[C@@H](CCC(N)=O)C(=O)N[C@@H](CC(C)C)C(=O)N[C@H](C(=O)N[C@@H](CCCCN)C(=O)N[C@@H](CCCNC(=N)N)C(=O)N[C@@H](Cc2ccccc2)C(=O)N[C@@H](CO)C(=O)N[C@@H](CC(C)C)C(=O)O)[C@@H](C)O)C(C)C)c(C)c1CC(=O)O` [^99mTc(CO)3-Pz^1-pepH1, metal not drawn] (X1-VQQLTKRFSL-OH; C-terminus assumed), the “log Po/w of radiopeptides” value [1] was −1.76 ± 0.11, the “injected activity in Blood” value ([2]; 140 μg/mouse, 1 hour) was 1.0 ± 0.2 % I.A./g and the “injected activity in Bone” value ([2]; 140 μg/mouse, 1 hour) was 0.16 ± 0.01 % I.A./g. The “injected activity in Brain” value ([2]; 140 μg/mouse, 1 hour) was 0.03 ± 0.00 % I.A./g, the “injected activity in Heart” value ([2]; 140 μg/mouse, 1 hour) was 0.39 ± 0.02 % I.A./g and the “injected activity in Intestine” value ([2]; 140 μg/mouse, 1 hour) was 13.0 ± 2.0 % I.A./g. For the same compound, the “injected activity in Kidney” value ([2]; 140 μg/mouse, 1 hour) was 1.6 ± 0.3 % I.A./g, the “injected activity in Liver” value ([2]; 140 μg/mouse, 1 hour) was 2.4 ± 1.0 % I.A./g and the “injected activity in Lung” value ([2]; 140 μg/mouse, 1 hour) was 1.4 ± 0.3 % I.A./g. For the same compound, the “injected activity in Muscle” value ([2]; 140 μg/mouse, 1 hour) was 0.2 ± 0.0 % I.A./g, the “injected activity in Spleen” value ([2]; 140 μg/mouse, 1 hour) was 0.22 ± 0.01 % I.A./g and the “injected activity in Stomach” value ([2]; 140 μg/mouse, 1 hour) was 0.31 ± 0.08 % I.A./g. For the same compound, the tissue uptake at 2 min ([2]; CD1, blood, iv, 140 ug/mouse, total radioactivity, 140 μg/mouse, 2 min, read-out: injected activity in Blood) was 3.1 ± 0.5 %ID/g, the tissue uptake at 2 min ([2]; CD1, bone, iv, 140 ug/mouse, total radioactivity, 140 μg/mouse, 2 min, read-out: injected activity in Bone) was 0.6 ± 0.2 %ID/g and the tissue uptake at 2 min ([2]; CD1, brain, iv, 140 ug/mouse, total radioactivity, 140 μg/mouse, 2 min, read-out: injected activity in Brain) was 0.11 ± 0.02 %ID/g. The tissue uptake at 2 min ([2]; CD1, heart, iv, 140 ug/mouse, total radioactivity, 140 μg/mouse, 2 min, read-out: injected activity in Heart) was 1.1 ± 0.4 %ID/g, the dose excreted at 2 min ([2]; CD1, in vivo, iv, 140 ug/mouse, total radioactivity, 140 μg/mouse, 2 min, read-out: Excretion) was 17.1 ± 7.9% and the dose excreted at 1 h ([2]; CD1, in vivo, iv, 140 ug/mouse, total radioactivity, 140 μg/mouse, 1 hour, read-out: Excretion) was 32.7 ± 0.2%. It also gave a tissue uptake at 2 min ([2]; CD1, intestine, iv, 140 ug/mouse, total radioactivity, 140 μg/mouse, 2 min, read-out: injected activity in Intestine) of 3.8 ± 2.3 %ID/g, a tissue uptake at 2 min ([2]; CD1, kidney, iv, 140 ug/mouse, total radioactivity, 140 μg/mouse, 2 min, read-out: injected activity in Kidney) of 14.6 ± 8.2 %ID/g and a tissue uptake at 2 min ([2]; CD1, liver, iv, 140 ug/mouse, total radioactivity, 140 μg/mouse, 2 min, read-out: injected activity in Liver) of 7 ± 1.1 %ID/g. The tissue uptake at 2 min ([2]; CD1, lung, iv, 140 ug/mouse, total radioactivity, 140 μg/mouse, 2 min, read-out: injected activity in Lung) was 2.6 ± 0.5 %ID/g, the tissue uptake at 2 min ([2]; CD1, muscle, iv, 140 ug/mouse, total radioactivity, 140 μg/mouse, 2 min, read-out: injected activity in Muscle) was 0.6 ± 0.2 %ID/g and the tissue uptake at 2 min ([2]; CD1, spleen, iv, 140 ug/mouse, total radioactivity, 140 μg/mouse, 2 min, read-out: injected activity in Spleen) was 0.7 ± 0.2 %ID/g. The tissue uptake at 2 min ([2]; CD1, stomach, iv, 140 ug/mouse, total radioactivity, 140 μg/mouse, 2 min, read-out: injected activity in Stomach) was 0.7 ± 0.4 %ID/g, the tissue uptake at 5 min ([2]; mouse, blood, 10 ug, total radioactivity, CD1 mice, iv, 5 min, 10 μg, read-out: injected activity in Blood) was 3.1 ± 0.5 %ID/g and the tissue uptake at 1 h ([2]; mouse, blood, 10 ug, total radioactivity, CD1 mice, iv, 1 hour, 10 μg, read-out: injected activity in Blood) was 1 ± 0.2 %ID/g. The tissue uptake at 5 min ([2]; mouse, bone, 10 ug, total radioactivity, CD1 mice, iv, 5 min, 10 μg, read-out: injected activity in Bone) was 0.6 ± 0.2 %ID/g, the tissue uptake at 1 h ([2]; mouse, bone, 10 ug, total radioactivity, CD1 mice, iv, 1 hour, 10 μg, read-out: injected activity in Bone) was 0.16 ± 0.01 %ID/g and the tissue uptake at 5 min ([2]; mouse, brain, 10 ug, total radioactivity, CD1 mice, iv, 5 min, 10 μg, read-out: injected activity in Brain) was 0.11 ± 0.02 %ID/g. For the same compound, the tissue uptake at 1 h ([2]; mouse, brain, 10 ug, total radioactivity, CD1 mice, iv, 1 hour, 10 μg, read-out: injected activity in Brain) was 0.03 %ID/g, the tissue uptake at 5 min ([2]; mouse, heart, 10 ug, total radioactivity, CD1 mice, iv, 5 min, 10 μg, read-out: injected activity in Heart) was 1.1 ± 0.4 %ID/g and the tissue uptake at 1 h ([2]; mouse, heart, 10 ug, total radioactivity, CD1 mice, iv, 1 hour, 10 μg, read-out: injected activity in Heart) was 0.39 ± 0.02 %ID/g. For the same compound, the percent of injected dose excreted at 5 min ([2]; mouse, in vivo, 10 ug, total radioactivity, CD1 mice, iv, 5 min, 10 μg, read-out: Excretion) was 17.1 ± 7.9 %ID, the percent of injected dose excreted at 1 h ([2]; mouse, in vivo, 10 ug, total radioactivity, CD1 mice, iv, 1 hour, 10 μg, read-out: Excretion) was 32.7 ± 0.2 %ID and the tissue uptake at 5 min ([2]; mouse, intestine, 10 ug, total radioactivity, CD1 mice, iv, 5 min, 10 μg, read-out: injected activity in Intestine) was 3.8 ± 2.3 %ID/g. For the same compound, the tissue uptake at 1 h ([2]; mouse, intestine, 10 ug, total radioactivity, CD1 mice, iv, 1 hour, 10 μg, read-out: injected activity in Intestine) was 13 ± 2 %ID/g, the tissue uptake at 5 min ([2]; mouse, kidney, 10 ug, total radioactivity, CD1 mice, iv, 5 min, 10 μg, read-out: injected activity in Kidney) was 14.6 ± 8.2 %ID/g and the tissue uptake at 1 h ([2]; mouse, kidney, 10 ug, total radioactivity, CD1 mice, iv, 1 hour, 10 μg, read-out: injected activity in Kidney) was 1.6 ± 0.3 %ID/g. It also gave a tissue uptake at 5 min ([2]; mouse, liver, 10 ug, total radioactivity, CD1 mice, iv, 5 min, 10 μg, read-out: injected activity in Liver) of 7 ± 1.1 %ID/g, a tissue uptake at 1 h ([2]; mouse, liver, 10 ug, total radioactivity, CD1 mice, iv, 1 hour, 10 μg, read-out: injected activity in Liver) of 2.4 ± 1 %ID/g and a tissue uptake at 5 min ([2]; mouse, lung, 10 ug, total radioactivity, CD1 mice, iv, 5 min, 10 μg, read-out: injected activity in Lung) of 2.6 ± 0.5 %ID/g. For the same compound, the tissue uptake at 1 h ([2]; mouse, lung, 10 ug, total radioactivity, CD1 mice, iv, 1 hour, 10 μg, read-out: injected activity in Lung) was 1.4 ± 0.3 %ID/g, the tissue uptake at 5 min ([2]; mouse, muscle, 10 ug, total radioactivity, CD1 mice, iv, 5 min, 10 μg, read-out: injected activity in Muscle) was 0.6 ± 0.2 %ID/g and the tissue uptake at 1 h ([2]; mouse, muscle, 10 ug, total radioactivity, CD1 mice, iv, 1 hour, 10 μg, read-out: injected activity in Muscle) was 0.2 %ID/g. The tissue uptake at 5 min ([2]; mouse, pancreas, 10 ug, total radioactivity, CD1 mice, iv, 5 min, 10 μg, read-out: injected activity in Pancreas) was 0.8 ± 0.2 %ID/g, the tissue uptake at 1 h ([2]; mouse, pancreas, 10 ug, total radioactivity, CD1 mice, iv, 1 hour, 10 μg, read-out: injected activity in Pancreas) was 0.41 ± 0.01 %ID/g and the tissue uptake at 5 min ([2]; mouse, spleen, 10 ug, total radioactivity, CD1 mice, iv, 5 min, 10 μg, read-out: injected activity in Spleen) was 0.7 ± 0.2 %ID/g. For the same compound, the tissue uptake at 1 h ([2]; mouse, spleen, 10 ug, total radioactivity, CD1 mice, iv, 1 hour, 10 μg, read-out: injected activity in Spleen) was 0.22 ± 0.01 %ID/g, the tissue uptake at 5 min ([2]; mouse, stomach, 10 ug, total radioactivity, CD1 mice, iv, 5 min, 10 μg, read-out: injected activity in Stomach) was 0.7 ± 0.4 %ID/g and the tissue uptake at 1 h ([2]; mouse, stomach, 10 ug, total radioactivity, CD1 mice, iv, 1 hour, 10 μg, read-out: injected activity in Stomach) was 0.31 ± 0.08 %ID/g.

— patent US10654917B2, “Antibody molecules and peptide delivery systems for use in alzheimer's disease and related disorders” (TECHNOPHAGE, INVESTIGAÇĀO E DESENVOLVIMENTO EM …, priority 2015, dated 2020)
